Reference: the CheMixHub viscosity set

Experiment: xn = mol fraction of the nth substance listed

O=S(=O)([O-])NC1CCCCC1.[Cs+] + O
viscosity [mPa·s], 101 kPa
Details | x1 = 0.0009023 | x1 = 0.001363 | x1 = 0.001814 | x1 = 0.002253 | x1 = 0.002731 | x1 = 0.00317 | x1 = 0.003611 | x1 = 0.004062
293.15 K | 1.024 | 1.036 | 1.047 | 1.058 | 1.071 | 1.082 | 1.093 | 1.105
298.15 K | 0.91 | 0.9199 | 0.9302 | 0.9399 | 0.951 | 0.9605 | 0.9704 | 0.9807
303.15 K | 0.8151 | 0.8242 | 0.8329 | 0.8415 | 0.8512 | 0.8595 | 0.8685 | 0.8771
313.15 K | 0.6672 | 0.6742 | 0.6815 | 0.6879 | 0.6959 | 0.7025 | 0.7097 | 0.7163
323.15 K | 0.5584 | 0.5642 | 0.5696 | 0.5753 | 0.5813 | 0.5866 | 0.5921 | 0.5977

CCCC[N+](CCCC)(CCCC)CCCC.[OH-] + CC(=O)N(C)C
viscosity [mPa·s], 101 kPa
Details | 298.15 K | 303.15 K | 308.15 K | 313.15 K
x1 = 0.0124 | 1.15 | 1.05 | 0.97 | 0.9
x1 = 0.0388 | 1.63 | 1.47 | 1.38 | 1.23
x1 = 0.0678 | 2.15 | 1.97 | 1.81 | 1.64
x1 = 0.0996 | 2.67 | 2.47 | 2.25 | 2.06
x1 = 0.1348 | 3.16 | 2.96 | 2.7 | 2.49
x1 = 0.1538 | 3.44 | 3.22 | 2.96 | 2.71
x1 = 0.1951 | 3.94 | 3.74 | 3.48 | 3.21
x1 = 0.2666 | 4.74 | 4.48 | 4.21 | 3.94
x1 = 0.3529 | 5.43 | 5.15 | 4.9 | 4.62
x1 = 0.4589 | 6.02 | 5.73 | 5.48 | 5.21
x1 = 0.5925 | 6.45 | 6.2 | 5.97 | 5.73
x1 = 0.7026 | 6.63 | 6.37 | 6.14 | 5.93
x1 = 0.8358 | 6.66 | 6.42 | 6.19 | 5.99

O=CO + CCCC(C)=O
viscosity [mPa·s], 101 kPa
Details | x1 = 0.1002 | x1 = 0.1998 | x1 = 0.3016 | x1 = 0.3992 | x1 = 0.4881 | x1 = 0.5974 | x1 = 0.7186 | x1 = 0.8392 | x1 = 0.8701
298.15 K | 0.5043 | 0.5479 | 0.6037 | 0.6689 | 0.7348 | 0.8418 | 1.003 | 1.198 | 1.262
308.15 K | 0.4519 | 0.4876 | 0.5327 | 0.586 | 0.6424 | 0.7294 | 0.8532 | 1.011 | 1.058
318.15 K | 0.4015 | 0.4344 | 0.4713 | 0.5146 | 0.5589 | 0.6331 | 0.7325 | 0.8607 | 0.8982

CCCCCBr + Cc1cc(C)cc(C)c1
308.15 K, 101 kPa
Details | viscosity [mPa·s]
x2 = 0.1098 | 0.6376
x2 = 0.2005 | 0.6292
x2 = 0.2983 | 0.6179
x2 = 0.4035 | 0.6093
x2 = 0.4979 | 0.6042
x2 = 0.6027 | 0.5945
x2 = 0.802 | 0.5739
x2 = 0.8481 | 0.5719
x2 = 0.9023 | 0.5699

O=CO + O
Details | viscosity [mPa·s]
293.15 K, 101.33 kPa, x1 = 0.0417 | 1.098
293.15 K, 101.33 kPa, x1 = 0.1309 | 1.195
293.15 K, 101.33 kPa, x1 = 0.144 | 1.216
293.15 K, 101.33 kPa, x1 = 0.1574 | 1.215
293.15 K, 101.33 kPa, x1 = 0.2621 | 1.323
293.15 K, 101.33 kPa, x1 = 0.2708 | 1.328
293.15 K, 101.33 kPa, x1 = 0.281 | 1.344
293.15 K, 101.33 kPa, x1 = 0.2928 | 1.347
293.15 K, 101.33 kPa, x1 = 0.3352 | 1.394
293.15 K, 101.33 kPa, x1 = 0.338 | 1.4
293.15 K, 101.33 kPa, x1 = 0.3556 | 1.4
293.15 K, 101.33 kPa, x1 = 0.3729 | 1.414
293.15 K, 101.33 kPa, x1 = 0.4039 | 1.478
293.15 K, 101.33 kPa, x1 = 0.4086 | 1.48
293.15 K, 101.33 kPa, x1 = 0.4832 | 1.519
293.15 K, 101.33 kPa, x1 = 0.5055 | 1.525
293.15 K, 101.33 kPa, x1 = 0.5951 | 1.601
293.15 K, 101.33 kPa, x1 = 0.9418 | 1.68
298.15 K, 101 kPa, x1 = 0.0122 | 0.907
298.15 K, 101 kPa, x1 = 0.1286 | 1.041
298.15 K, 101 kPa, x1 = 0.525 | 1.379
298.15 K, 101.33 kPa, x1 = 0.1037 | 0.979
298.15 K, 101.33 kPa, x1 = 0.1496 | 1.029
298.15 K, 101.33 kPa, x1 = 0.1753 | 1.039
298.15 K, 101.33 kPa, x1 = 0.2194 | 1.076
298.15 K, 101.33 kPa, x1 = 0.3029 | 1.174
298.15 K, 101.33 kPa, x1 = 0.3271 | 1.219
298.15 K, 101.33 kPa, x1 = 0.3334 | 1.227
298.15 K, 101.33 kPa, x1 = 0.3355 | 1.228
298.15 K, 101.33 kPa, x1 = 0.3729 | 1.268
298.15 K, 101.33 kPa, x1 = 0.4205 | 1.305
298.15 K, 101.33 kPa, x1 = 0.4762 | 1.356
298.15 K, 101.33 kPa, x1 = 0.4906 | 1.36
298.15 K, 101.33 kPa, x1 = 0.5185 | 1.362
298.15 K, 101.33 kPa, x1 = 0.6055 | 1.427
298.15 K, 101.33 kPa, x1 = 0.9418 | 1.598
303.15 K, 101 kPa, x1 = 0.0501 | 0.849
303.15 K, 101 kPa, x1 = 0.1061 | 0.897
303.15 K, 101 kPa, x1 = 0.169 | 0.95
303.15 K, 101 kPa, x1 = 0.2404 | 0.994
303.15 K, 101 kPa, x1 = 0.3219 | 1.062
303.15 K, 101 kPa, x1 = 0.4159 | 1.156
303.15 K, 101 kPa, x1 = 0.5255 | 1.159
303.15 K, 101 kPa, x1 = 0.655 | 1.234
303.15 K, 101 kPa, x1 = 0.8103 | 1.288
313.15 K, 101.33 kPa, x1 = 0.0417 | 0.729
313.15 K, 101.33 kPa, x1 = 0.144 | 0.809
313.15 K, 101.33 kPa, x1 = 0.281 | 0.92

CC(Cl)(Cl)Cl + CC1CCCCC1
303.15 K, 101 kPa
Details | viscosity [mPa·s]
x1 = 0.1468 | 0.6328
x1 = 0.2138 | 0.629
x1 = 0.31 | 0.6248
x1 = 0.4182 | 0.6239
x1 = 0.5255 | 0.6301
x1 = 0.5982 | 0.6379
x1 = 0.69 | 0.6518
x1 = 0.759 | 0.6659
x1 = 0.8273 | 0.6809
x1 = 0.9075 | 0.7009

CC/C(C)=N/O + CCC(C)=O
viscosity [mPa·s], 101.3 kPa
Details | x1 = 0.0846 | x1 = 0.1716 | x1 = 0.2627 | x1 = 0.3557 | x1 = 0.4528 | x1 = 0.5541 | x1 = 0.6588 | x1 = 0.768 | x1 = 0.8817
293.15 K | 0.459 | 0.533 | 0.625 | 0.759 | 0.922 | 1.162 | 1.511 | 2.066 | 3.035
298.15 K | 0.438 | 0.508 | 0.592 | 0.714 | 0.86 | 1.073 | 1.368 | 1.836 | 2.619
303.15 K | 0.416 | 0.479 | 0.558 | 0.667 | 0.802 | 0.987 | 1.249 | 1.655 | 2.306

O=CO + CC(=O)O
viscosity [mPa·s], 101 kPa
Details | 298.15 K | 323.15 K
x1 = 0.0603 | 1.119 | 0.7729
x1 = 0.1 | 1.286 | –
x1 = 0.2 | 1.391 | –
x1 = 0.2363 | 1.278 | 0.8526
x1 = 0.3 | 1.463 | –
x1 = 0.4 | 1.506 | –
x1 = 0.4165 | 1.425 | 0.9226
x1 = 0.5 | 1.564 | –
x1 = 0.6 | 1.587 | –
x1 = 0.613 | 1.52 | 0.9694
x1 = 0.7 | 1.607 | –
x1 = 0.7416 | 1.565 | 0.9847
x1 = 0.8 | 1.607 | –
x1 = 0.8864 | 1.565 | 0.9893
x1 = 0.9 | 1.582 | –
x1 = 0.9578 | 1.56 | 0.9775

CC(C)C1CCCCC1 + CCCCO
viscosity [mPa·s], 100 kPa
Details | x1 = 0.0995 | x1 = 0.1998 | x1 = 0.2959 | x1 = 0.4009 | x1 = 0.4944 | x1 = 0.5738 | x1 = 0.6818 | x1 = 0.7966 | x1 = 0.8935
293.15 K | 2.489 | 2.126 | 1.858 | 1.614 | 1.45 | 1.325 | 1.214 | 1.139 | 1.105
298.15 K | 2.189 | 1.884 | 1.654 | 1.449 | 1.31 | 1.207 | 1.114 | 1.051 | 1.022
303.15 K | 1.94 | 1.678 | 1.481 | 1.308 | 1.189 | 1.104 | 1.024 | 0.974 | 0.95
308.15 K | 1.726 | 1.501 | 1.332 | 1.185 | 1.085 | 1.014 | 0.947 | 0.905 | 0.885
313.15 K | 1.539 | 1.348 | 1.203 | 1.078 | 0.994 | 0.935 | 0.879 | 0.844 | 0.827
318.15 K | 1.379 | 1.216 | 1.092 | 0.985 | 0.915 | 0.866 | 0.818 | 0.789 | 0.774
323.15 K | 1.241 | 1.1 | 0.995 | 0.906 | 0.845 | 0.804 | 0.764 | 0.738 | 0.727

CNC[C@H](O)c1cccc(O)c1.Cl + CO
viscosity [mPa·s], 100 kPa
Details | 293.15 K | 298.15 K | 303.15 K | 308.15 K | 313.15 K | 318.15 K | 323.15 K
x1 = 0.00048 | 0.6061 | 0.5699 | 0.5374 | 0.4992 | 0.4719 | 0.4428 | 0.4161
x1 = 0.00096 | 0.6213 | 0.5836 | 0.5482 | 0.5108 | 0.4839 | 0.4485 | 0.4228
x1 = 0.00144 | 0.6373 | 0.593 | 0.5581 | 0.5213 | 0.4935 | 0.4539 | 0.4302
x1 = 0.00192 | 0.6534 | 0.6059 | 0.5687 | 0.5404 | 0.5059 | 0.466 | 0.433
x1 = 0.0024 | 0.6642 | 0.6216 | 0.5828 | 0.5593 | 0.5182 | 0.4782 | 0.4357
